Results from patent US20090263339A1, “AGENT FOR EXTERNAL APPLICATION TO THE SKIN” (KABUSHIKI KAISHA HAYASHIBARA SEIBUTSU KAGAKU KENKY, priority 2005, published 2009).
In brackets after ≈: the same amount, converted by molar mass. Where two headings read alike, the source gives them in different places. Values belong to the compound of their own block, whether it stands above or below them.

Experiments:
[1] = tested on: B16 melanoma cells of mouse; experiment: Effect of indigo-plant extract and other skin-whitening ingredient on melanin production (Experiment 2); format: cell-based; design: Efficacy with 1.25% of indigo-plant extract: key: −: Not changed; ±: Slightly suppressing blackening; +: Moderately suppressing blackening; ++: Significantly suppressing blackening; +++: Completely suppressing blackening; settings: for Efficacy with 1.25% of indigo-plant extract: 72 hours; for Efficacy without indigo-plant extract: cultured 72 hours; as to Efficacy without indigo-plant extract: key: −: Not changed; ±: Slightly suppressing blackening; +: Moderately suppressing blackening; ++: Significantly suppressing blackening; +++: Completely suppressing blackening
Method: The criterion for evaluation of blackening:
The following experiment was carried out to investigate the skin-whitening effect of indigo-plant extract and other skin-whitening ingredient. After B16 melanoma cells of mouse were cultured for 24 hours, the test samples were added to the medium alone or along with 1.25% of the indigo-plant extract to give the concentrations described in Table 2, the cells were cultured for additional 72 hours. After the number of the living cells was counted, a color of the cells packed in capillary was observed. The effect was evaluated on the same criterion in Experiment 1. When the experiment was conducted using 1.25% of the indigo-plant extract, the effect was evaluated as “+”.

S. mutans = experiment: MIC to dental bacteria, agar plate dilution; format: cell-based; settings: Streptococcus mutans
Method: (§1) The following experiment was carried out to investigate the effect of indigo-plant extract on human dental bacteria. Two parts by weight of shredded whole indigo plant was added with three parts by weight of purified water and stirred at a room temperature for 10 minutes to prepare the extract. The supernatant obtained by centrifugation was autoclaved at 120° C. for 20 minutes. After autoclaved, the supernatant obtained by centrifugation was filtrated to give an indigo-plant extract (solid content of 1.41%). The minimum inhibitory concentration (hereinafter, occasionally abbreviated as “MIC”) of the extract to dental bacteria (periodontal disease bacteria and caries bacteria) was determined. Also MIC of tryptanthrin, gallic acid and caffeic acid, which are found to be contained in the indigo-plant extract to dental bacteria. The measurement of MIC was conducted by the method described below.
(§2) MIC of the indigo-plant extract, tirptanthrin, gallic acid and caffeic acid was determined according to the standard method of Japanese Society of Chemotherapy (q.v. “Saikin-Shinkin Kensa” (Second edition), issued by Japan Public Health Association, pp. 524-529 (1982)). For periodontal disease bacteria, Prophyromonas gingivalis JCM8525, JCM12257 and ATCC33277, Actinobacillus actinomycetemcomitans (hereinafter, occasionally abbreviated as “A. actinomycetemcomitans”) JCM2434 and JCM8577, Prevotella intermedia (hereinafter, occasionally abbreviated as “P. intermedia”) JCM7365, and Campylobacter rectus (hereinafter, occasionally abbreviated as “C. rectus”) JCM6301 were used. For caries bacteria, Streptococcus mutans OMZ-175, OMZ-176, OMZ-65, OMZ-61, B-13D and Ingbritt, and Streptococcus sorbrinus (hereinafter, occasionally abbreviated as “S. sorbrinus”) 6715 were used. These bacteria were anaerobically cultured in Brain Heart Infusion medium (commercialized by Difco Laboratories Inc., hereinafter abbreviated as “BHI”) at 37° C. for 48 hours for periodontal disease bacteria or for 18 to 24 hours for caries bacteria. The broth of periodontal disease bacteria and caries bacteria was diluted to give the bacteria suspensions containing 10^8 cells/ml and 10^6 cells/ml, respectively. Five μl of any one of these suspension was inoculated on BHI agar plate containing various concentration of the indigo-plant extract, tryptanthrin, gallic acid or caffeic acid and anaerobically cultured at 37° C. for 24 hours.

P. intermedia = experiment: MIC to dental bacteria, agar plate dilution; format: cell-based; settings: Prevotella intermedia, read-out: Minimum Inhibitory Concentration (MIC)
Method: as §1, §2

C. rectus = experiment: MIC to dental bacteria, agar plate dilution; format: cell-based; settings: Campylobacter rectus, read-out: Minimum Inhibitory Concentration (MIC)
Method: as §1, §2

S. sobrinus = experiment: MIC to dental bacteria, agar plate dilution; format: cell-based, Streptococcus sorbrinus; settings: Streptococcus sobrinus, read-out: Minimum Inhibitory Concentration (MIC)
Method: as §1
MIC of the indigo-plant extract, tirptanthrin, gallic acid and caffeic acid was determined according to the standard method of Japanese Society of Chemotherapy (q.v. “Saikin-Shinkin Kensa” (Second edition), issued by Japan Public Health Association, pp. 524-529 (1982)). For periodontal disease bacteria, Prophyromonas gingivalis JCM8525, JCM12257 and ATCC33277, Actinobacillus actinomycetemcomitans (hereinafter, occasionally abbreviated as “A. actinomycetemcomitans”) JCM2434 and JCM8577, Prevotella intermedia (hereinafter, occasionally abbreviated as “P. intermedia”) JCM7365, and Campylobacter rectus (hereinafter, occasionally abbreviated as “C. rectus”) JCM6301 were used. For caries bacteria, Streptococcus mutans OMZ-175, OMZ-176, OMZ-65, OMZ-61, B-13D and Ingbritt, and Streptococcus sorbrinus (hereinafter, occasionally abbreviated as “S. sorbrinus”) 6715 were used. These bacteria were anaerobically cultured in Brain Heart Infusion medium (commercialized by Difco Laboratories Inc., hereinafter abbreviated as “BHI”) at 37° C. for 48 hours for periodontal disease bacteria or for 18 to 24 hours for caries bacteria. […]

[2] = tested on: B16 melanoma cells of mouse; experiment: Effect of polygonaceous plant extracts on melanin production, blackening of cells (Experiment 1); format: cell-based; as to Efficacy (suppression of blackening of cells): key: −: Not changed; ±: Slightly suppressing blackening; +: Moderately suppressing blackening; ++: Significantly suppressing blackening; +++: Completely suppressing blackening
Method: The following experiment was carried out to investigate the effect of extract of polygonaceous plants on melanin production. After 2.2×10^5 of B16 melanoma cells of mouse were cultured by conventional method for 24 hours, the medium was added with indigo-plant extract to give a concentration of 1.25% or 2.5%, then they were cultured for additional 72 hours. After the number of the living cells was counted, color of the cells packed in capillary was observed. Using a medium added with any one of the extract of Japanese knotweed, buckwheat and knotgrass prepared by the same method of Example 1 described later to give a concentration of 2.5%, or added with koji acid to give a concentration of 2.5 mM as control, the B16 melanoma cells were cultured by the same manner as using indigo-plant extract. Then the colors of the cells were observed by the same manner as using indigo-plant extract. The degree of blackening of B16 melanoma cells was evaluated by the criterion described below.

B16 melanoma cells = experiment: Cytotoxicity to B16 melanoma cells; format: cell-based, mouse; settings: 0.5 μg/ml
A. actinomycetemcomitans [3] = experiment: MIC to dental bacteria, agar plate dilution; format: cell-based, Actinobacillus actinomycetemcomitans; settings: Aggregatibacter actinomycetemcomitans
Method: as §1, §2

A. actinomycetemcomitans [4] = experiment: MIC to dental bacteria, agar plate dilution; format: cell-based, Actinobacillus actinomycetemcomitans; settings: Aggregatibacter actinomycetemcomitans; remark: listed apart in the source
[5] = tested on: dental bacteria (periodontal disease bacteria and caries bacteria); experiment: MIC to dental bacteria, summary over all strains; format: cell-based
Method: as §1
MIC of the indigo-plant extract, tirptanthrin, gallic acid and caffeic acid was determined according to the standard method of Japanese Society of Chemotherapy (q.v. “Saikin-Shinkin Kensa” (Second edition), issued by Japan Public Health Association, pp. 524-529 (1982)). […]

[6] = content 3.0% together with 1.25% indigo-plant extract
[7] = content 0.5% together with 1.25% indigo-plant extract
[8] = content 1.0% together with 1.25% indigo-plant extract
[9] = strain B-13D, read-out: Minimum Inhibitory Concentration (MIC)
[10] = strain Ingbritt, read-out: Minimum Inhibitory Concentration (MIC)
[11] = strain OMZ-61, read-out: Minimum Inhibitory Concentration (MIC)
[12] = strain OMZ-65, read-out: Minimum Inhibitory Concentration (MIC)
[13] = strain OMZ-175, read-out: Minimum Inhibitory Concentration (MIC)
[14] = strain OMZ-176, read-out: Minimum Inhibitory Concentration (MIC)
[15] = strain JMC2434, read-out: Minimum Inhibitory Concentration (MIC)
[16] = strain JMC8577, read-out: Minimum Inhibitory Concentration (MIC)
[17] = strain JMC8525, read-out: Minimum Inhibitory Concentration (MIC)
[18] = strain JMC12257, read-out: Minimum Inhibitory Concentration (MIC)
[19] = strain JMC33277, read-out: Minimum Inhibitory Concentration (MIC)

Compound: O=C1O[C@H]([C@@H](O)CO)C([O-])=C1O.[Na+] [Sodium L-ascorbate]
Efficacy with 1.25% of indigo-plant extract [1, 6]: +++ | Efficacy without indigo-plant extract ([1]; content 3.0%): +

Compound: O=c1oc2c(O)c(O)cc3c(=O)oc4c(O)c(O)cc1c4c23 [Ellagic acid]
Efficacy with 1.25% of indigo-plant extract [1, 7]: ++ | Efficacy without indigo-plant extract ([1]; content 0.5%): ±

Compound: OC[C@H]1O[C@@H](Oc2ccc(O)cc2)[C@H](O)[C@@H](O)[C@@H]1O [Arbutin, hydroquinone-β-D-glucoside]
Efficacy with 1.25% of indigo-plant extract ([1]; content 5.0% together with 1.25% indigo-plant extract): +++ | Efficacy without indigo-plant extract ([1]; content 5.0%): +

Compound: COc1cc(CCC(=O)CC(=O)CCc2ccc(O)c(OC)c2)ccc1O [Tetrahydrocurcumin]
Efficacy with 1.25% of indigo-plant extract [1, 7]: ++ | Efficacy without indigo-plant extract ([1]; content 0.5%): ±

Compound: CCCCc1ccc(O)cc1O [4-n-Butylresorcinol]
Efficacy with 1.25% of indigo-plant extract [1, 6]: +++ | Efficacy without indigo-plant extract ([1]; content 3.0%): +

Compound: CCCCC/C=C\C/C=C\CCCCCCCC(=O)O [Linoleic acid]
Efficacy with 1.25% of indigo-plant extract [1, 7]: ++ | Efficacy without indigo-plant extract ([1]; content 0.5%): ±

Compound: NC[C@H]1CC[C@H](C(=O)O)CC1 [Tranexamic acid]
Efficacy with 1.25% of indigo-plant extract [1, 8]: ++ | Efficacy without indigo-plant extract ([1]; content 1.0%): ±

Compound: O=C1c2ccccc2-n2c1nc1ccccc1c2=O [tryptanthrin]
MIC (S. mutans; read-out: Minimum Inhibitory Concentration (MIC), strain B-13D): 6.25 µg/mL (≈ 25.2 µM) | MIC (S. mutans; read-out: Minimum Inhibitory Concentration (MIC), strain Ingbritt): 25 µg/mL (≈ 101 µM) | MIC (S. mutans; read-out: Minimum Inhibitory Concentration (MIC), strain OMZ-61): 6.25 µg/mL (≈ 25.2 µM) | MIC (S. mutans; read-out: Minimum Inhibitory Concentration (MIC), strain OMZ-65): 12.5 µg/mL (≈ 50.4 µM) | MIC (S. mutans; read-out: Minimum Inhibitory Concentration (MIC), strain OMZ-175): 6.25 µg/mL (≈ 25.2 µM) | MIC (S. mutans; read-out: Minimum Inhibitory Concentration (MIC), strain OMZ-176): 12.5 µg/mL (≈ 50.4 µM) | MIC (P. intermedia): 6.25 µg/mL (≈ 25.2 µM) | MIC (C. rectus): 25 µg/mL (≈ 101 µM) | MIC (S. sobrinus): 25 µg/mL (≈ 101 µM) | Melanin production ([2]; 0.5 μg/ml or more used instead of the indigo-plant extract): melanin production was suppressed although the effect was lower than the one of indigo-plant extract | Cytotoxicity (B16 melanoma cells): no cytotoxity to B16 melanoma cells was observed | MIC (A. actinomycetemcomitans [3]; read-out: Minimum Inhibitory Concentration (MIC), strain JMC2434): 25 µg/mL (≈ 101 µM) | MIC (A. actinomycetemcomitans [3]; read-out: Minimum Inhibitory Concentration (MIC), strain JMC8525): 6.25 µg/mL (≈ 25.2 µM) | MIC (A. actinomycetemcomitans [3]; read-out: Minimum Inhibitory Concentration (MIC), strain JMC8577): 25 µg/mL (≈ 101 µM) | MIC (A. actinomycetemcomitans [4]; read-out: Minimum Inhibitory Concentration (MIC), strain JMC12257): 12.5 µg/mL (≈ 50.4 µM) | MIC (A. actinomycetemcomitans [4]; read-out: Minimum Inhibitory Concentration (MIC), strain JMC33277): 12.5 µg/mL (≈ 50.4 µM)

MIC (S. mutans; [9]): 200 µg/mL (≈ 1180 µM) | MIC (S. mutans; [10]): 1600 µg/mL (≈ 9410 µM) | MIC (S. mutans; [11]): 200 µg/mL (≈ 1180 µM) | MIC (S. mutans; [12]): 1600 µg/mL (≈ 9410 µM) | MIC (S. mutans; [13]): 400 µg/mL (≈ 2350 µM) | MIC (S. mutans; [14]): 400 µg/mL (≈ 2350 µM) | MIC (P. intermedia; strain JMC7365): 400 µg/mL (≈ 2350 µM) | MIC (C. rectus; strain JMC6301): 400 µg/mL (≈ 2350 µM) | MIC (S. sobrinus; strain 6715): 800 µg/mL (≈ 4700 µM) | MIC (A. actinomycetemcomitans [3]; [15]): 800 µg/mL (≈ 4700 µM) | MIC (A. actinomycetemcomitans [3]; [16]): 800 µg/mL (≈ 4700 µM) | MIC (A. actinomycetemcomitans [4]; [17]): 400 µg/mL (≈ 2350 µM) | MIC (A. actinomycetemcomitans [4]; [18]): 400 µg/mL (≈ 2350 µM) | MIC (A. actinomycetemcomitans [4]; [19]): 400 µg/mL (≈ 2350 µM)
Compound: O=C(O)c1cc(O)c(O)c(O)c1 [Gallic acid, gallic acid]

Compound: COc1ccc(C(=O)[O-])c(O)c1.[K+] [Potassium 4-methoxysalicylate]
Efficacy with 1.25% of indigo-plant extract [1, 8]: +++ | Efficacy without indigo-plant extract ([1]; content 1.0%): +

MIC (S. mutans; [9]): 200 µg/mL (≈ 1110 µM) | MIC (S. mutans; [10]): 1600 µg/mL (≈ 8880 µM) | MIC (S. mutans; [11]): 400 µg/mL (≈ 2220 µM) | MIC (S. mutans; [12]): 200 µg/mL (≈ 1110 µM) | MIC (S. mutans; [13]): 400 µg/mL (≈ 2220 µM) | MIC (S. mutans; [14]): 800 µg/mL (≈ 4440 µM) | MIC (P. intermedia; strain JMC7365): 400 µg/mL (≈ 2220 µM) | MIC (C. rectus; strain JMC6301): 100 µg/mL (≈ 555 µM) | MIC (S. sobrinus; strain 6715): 800 µg/mL (≈ 4440 µM) | MIC (A. actinomycetemcomitans [3]; [15]): 400 µg/mL (≈ 2220 µM) | MIC (A. actinomycetemcomitans [3]; [16]): 200 µg/mL (≈ 1110 µM) | MIC (A. actinomycetemcomitans [4]; [17]): 400 µg/mL (≈ 2220 µM) | MIC (A. actinomycetemcomitans [4]; [18]): 400 µg/mL (≈ 2220 µM) | MIC (A. actinomycetemcomitans [4]; [19]): 400 µg/mL (≈ 2220 µM)
Compound: O=C(O)/C=C/c1ccc(O)c(O)c1 [Caffeic acid, caffeic acid]
Antimicrobial activity (in words) [5]: no antimicrobial activity

Compound: O=c1cc(CO)occ1O [koji acid]
Efficacy (suppression of blackening of cells) ([2]; medium containing 2.5 mM, cultured 72 hours): + | Efficacy with 1.25% of indigo-plant extract [1, 8]: +++ | Efficacy without indigo-plant extract ([1]; content 1.0%): +
